In US12110294B2, “CD73 compounds” (Gilead Sciences, Inc., priority 2020, dated 2024):

These compounds were tested against T1, CD73 activity in MDA-MB-231-GFP cells (Homo sapiens, UniProt P21589) (assay: MDA-MB-231 Cell Based CD73 Activity Assay (DMEM)). Conditions: 3000 cells per well, DMEM medium with 10% human plasma, overnight compound treatment, AMP 200 uM.
T1 construct: endogenous in cells; host or cells: MDA-MB-231-GFP cells
T1 sequence (P21589 27-549): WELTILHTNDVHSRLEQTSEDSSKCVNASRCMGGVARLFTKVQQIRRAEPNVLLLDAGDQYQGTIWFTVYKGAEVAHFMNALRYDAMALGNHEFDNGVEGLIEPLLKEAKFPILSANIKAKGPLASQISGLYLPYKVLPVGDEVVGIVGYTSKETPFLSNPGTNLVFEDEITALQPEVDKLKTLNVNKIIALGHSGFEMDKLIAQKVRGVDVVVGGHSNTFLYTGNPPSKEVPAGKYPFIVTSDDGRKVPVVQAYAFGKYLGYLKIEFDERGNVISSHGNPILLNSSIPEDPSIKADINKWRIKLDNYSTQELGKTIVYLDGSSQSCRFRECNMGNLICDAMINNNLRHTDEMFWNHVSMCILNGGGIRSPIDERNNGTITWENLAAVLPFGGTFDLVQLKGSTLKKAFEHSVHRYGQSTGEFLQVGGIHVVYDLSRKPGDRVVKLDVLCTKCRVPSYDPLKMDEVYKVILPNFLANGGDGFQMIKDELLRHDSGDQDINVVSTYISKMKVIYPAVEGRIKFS

SMILES	EC50
O=c1[nH]cc(-c2cc([C@H]3C[C@@H]3c3ccc(OC(F)(F)F)cn3)c3ncc(F)n3n2)c(=O)[nH]1 (racemic) [Example 374, 5-(3-fluoro-8-((2S,2S)-2-(5-(trifluoromethoxy)pyridin-2-yl)cyclopropyl)imidazo[1,2-b]pyridazin-6-yl)pyrimidine-2,4(1H,3H)-dione]	0.0138 µM
O=c1[nH]cc(-c2cc([C@H]3C[C@@H]3c3ccc(OC(F)(F)F)nc3)c3nccn3n2)c(=O)[nH]1 (racemic) [Example 376, 5-(8-((2S,2S)-2-(6-(trifluoromethoxy)pyridin-3-yl)cyclopropyl)imidazo[1,2-b]pyridazin-6-yl)pyrimidine-2,4(1H,3H)-dione]	0.0193 µM
O=c1[nH]cc(-c2cc([C@H]3C[C@@H]3c3ncc(C(F)(F)F)cn3)c3nccn3n2)c(=O)[nH]1 (racemic) [Example 377, 5-(8-((1S,2S)-2-(5-(trifluoromethyl)pyrimidin-2-yl)cyclopropyl)imidazo[1,2-b]pyridazin-6-yl)pyrimidine-2,4(1H,3H)-dione]	0.0226 µM
O=c1[nH]cc(-c2cc([C@H]3C[C@@H]3c3ncc(C(F)(F)F)cn3)c3ncc(F)n3n2)c(=O)[nH]1 (racemic) [Example 378, 5-(3-fluoro-8-((1S,2S)-2-(5-(trifluoromethyl)pyrimidin-2-yl)cyclopropyl)imidazo[1,2-b]pyridazin-6-yl)pyrimidine-2,4(1H,3H)-dione]	0.0189 µM
N#Cc1ccc([C@H]2C[C@@H]2c2cc(-c3c[nH]c(=O)[nH]c3=O)nn3ccnc23)c(F)c1 (racemic) [Example 407, 4-((2S,2S)-2-(6-(2,4-dioxo-1,2,3,4-tetrahydropyrimidin-5-yl)imidazo[1,2-b]pyridazin-8-yl)cyclopropyl)-3-fluorobenzonitrile]	0.0147 µM
N#Cc1cccc([C@H]2C[C@@H]2c2cc(-c3c[nH]c(=O)[nH]c3=O)nn3ccnc23)c1F (racemic) [Example 408, 3-((1S,2S)-2-(6-(2,4-dioxo-1,2,3,4-tetrahydropyrimidin-5-yl)imidazo[1,2-b]pyridazin-8-yl)cyclopropyl)-2-fluorobenzonitrile]	0.00744 µM
N#Cc1ccc([C@H]2C[C@@H]2c2cc(-c3c[nH]c(=O)[nH]c3=O)nn3ccnc23)cc1C(F)(F)F (racemic) [Example 411, 4-((1S,2S)-2-(6-(2,4-dioxo-1,2,3,4-tetrahydropyrimidin-5-yl)imidazo[1,2-b]pyridazin-8-yl)cyclopropyl)-2-(trifluoromethyl)benzonitrile]	0.0426 µM
N#Cc1cc([C@H]2C[C@@H]2c2cc(-c3c[nH]c(=O)[nH]c3=O)nn3ccnc23)ccc1C(F)(F)F (racemic) [Example 412, 5-((2S,2S)-2-(6-(2,4-dioxo-1,2,3,4-tetrahydropyrimidin-5-yl)imidazo[1,2-b]pyridazin-8-yl)cyclopropyl)-2-(trifluoromethyl)benzonitrile]	0.0383 µM
N#Cc1ccc([C@H]2C[C@@H]2c2cc(-c3c[nH]c(=O)[nH]c3=O)nn3ccnc23)cc1OC(F)(F)F (racemic) [Example 413, 4-((2S,2S)-2-(6-(2,4-dioxo-1,2,3,4-tetrahydropyrimidin-5-yl)imidazo[1,2-b]pyridazin-8-yl)cyclopropyl)-2-(trifluoromethoxy)benzonitrile]	0.0346 µM
N#Cc1cc([C@H]2C[C@@H]2c2cc(-c3c[nH]c(=O)[nH]c3=O)nn3ccnc23)ccc1OC(F)(F)F (racemic) [Example 414, 5-((2S,2S)-2-(6-(2,4-dioxo-1,2,3,4-tetrahydropyrimidin-5-yl)imidazo[1,2-b]pyridazin-8-yl)cyclopropyl)-2-(trifluoromethoxy)benzonitrile]	0.0438 µM
O=c1[nH]cc(-c2cc(N3CC(Oc4ccc(C(F)(F)F)cn4)C(F)(F)C3)c3ncnn3n2)c(=O)[nH]1 (racemic) [Example 432, 5-(8-(3,3-difluoro-4-((5-(trifluoromethyl)pyridin-2-yl)oxy)pyrrolidin-1-yl)-[1,2,4]triazolo[1,5-b]pyridazin-6-yl)pyrimidine-2,4(1H,3H)-dione]	0.00258 µM
